One assay concerns the target T1, human ALX receptor (Homo sapiens, UniProt P25090).
T1 construct: expressed in transfected cells; host or cells: HEK293 (HEK293-hALXR-Gα16)
T1 sequence (P25090 1-351): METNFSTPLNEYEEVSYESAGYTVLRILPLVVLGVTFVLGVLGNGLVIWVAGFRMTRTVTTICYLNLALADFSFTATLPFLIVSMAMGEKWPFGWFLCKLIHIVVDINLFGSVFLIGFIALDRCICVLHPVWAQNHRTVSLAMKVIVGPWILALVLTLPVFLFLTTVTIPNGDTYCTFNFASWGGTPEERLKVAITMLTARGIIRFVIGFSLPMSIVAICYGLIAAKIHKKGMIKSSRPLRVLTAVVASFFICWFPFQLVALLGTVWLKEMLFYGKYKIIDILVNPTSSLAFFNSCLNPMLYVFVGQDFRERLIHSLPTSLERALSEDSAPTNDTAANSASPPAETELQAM
The assay is described as follows: Intracellular calcium measurements (FLIPR), agonistic activity in HEK293-hALXR-Gα16 cells. The format is cell-based. The settings on record: Fluo-4 calcium FLIPR, normalized to WKYMVm 10 nM. Put shortly:
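Agonist-induced calcium flux was recorded by FLIPR (488/540 nm) in HEK293-hALXR-Gα16 cells pre-loaded with Fluo-4 AM (1 μM, 60 min, 37°C). Peak signal above baseline, after subtracting buffer addition, was expressed relative to WKYMVm at 10 nM final.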
For orientation: Calcium assays in cells follow changes in intracellular calcium, usually with a dye or a luminescent sensor.

The target in the next assay is T2, human FPRL2 (Homo sapiens, UniProt P25089).
T2 construct: expressed in transfected cells; host or cells: HEK293 (HEK293-hFPRL2-Gα16)
T2 sequence (P25089 1-353): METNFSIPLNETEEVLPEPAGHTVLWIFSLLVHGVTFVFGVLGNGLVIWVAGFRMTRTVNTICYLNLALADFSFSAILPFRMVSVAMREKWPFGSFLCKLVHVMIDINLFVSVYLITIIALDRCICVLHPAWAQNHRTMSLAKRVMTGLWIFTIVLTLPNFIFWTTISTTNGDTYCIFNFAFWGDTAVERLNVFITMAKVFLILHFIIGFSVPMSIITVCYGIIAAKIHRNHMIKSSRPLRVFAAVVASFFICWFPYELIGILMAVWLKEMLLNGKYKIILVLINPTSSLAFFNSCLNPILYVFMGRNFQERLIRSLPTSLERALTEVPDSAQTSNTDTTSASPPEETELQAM
Description: Intracellular calcium measurements (FLIPR), agonistic activity in HEK293-hFPRL2-Gα16 cells. It counts as cell-based. To be noted: Fluo-4 calcium FLIPR, normalized to GLY14-Humanin 100 nM. The method in brief:
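Peak values after baseline subtraction are expressed relative to 100 nM Gly14-Humanin; compounds diluted in assay buffer from 10 mM DMSO stocks.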

A value given as a limit tells only on which side of the number the result lay.

Usually EC50 stands for the midpoint of the concentration-response curve. For the molecule `O=C(NCCCCN1CCCC1)[C@H]1[C@H](C(=O)Nc2cnc(Br)cn2)[C@@H]2C=C[C@H]1C21CC1` (racemic) [Example 251, (5R*)—N^5-(2-Bromo-pyrazin-5-yl)-(6R*)—N^6-(4-pyrrolidin-1-yl-butyl)-(4S*,7R*)-[4,7-ethenylene-spiro[2.4]heptane]-5,6-dicarboxamide], the EC50 at human ALX receptor came to 7.9 nM; at human FPRL2, 558 nM.

As to `O=C(NCCCCN1CCCC1)[C@H]1[C@H](C(=O)Nc2ccc(C(F)(F)F)cn2)[C@@H]2C=C[C@H]1C21CC1` (racemic) [Example 252, (5R*)—N^5-(5-Trifluoromethyl-pyridin-2-yl)-(6R*)—N^6-(4-pyrrolidin-1-yl-butyl)-(4S*,7R*)-[4,7-ethenylene-spiro[2.4]heptane]-5,6-dicarboxamide], the EC50 on human ALX receptor came to 82 nM; at human FPRL2, 210 nM.

On to `O=C(NCCCCN1CCCC1)[C@H]1[C@H](C(=O)Nc2ccc3ncoc3c2)[C@@H]2C=C[C@H]1C21CC1` (racemic) [Example 254, (5R*)—N^5-(Benzo[d]oxazol-6-yl)-(6R*)—N^6-(4-pyrrolidin-1-yl-butyl)-(4S*,7R*)-[4,7-ethenylene-spiro[2.4]heptane]-5,6-dicarboxamide], for which the EC50 at human ALX receptor came to 492 nM; on human FPRL2 it was 67 nM.

Take `Cc1cc(CNC(=O)[C@H]2[C@H](C(=O)NCCCCN3CCCC3)[C@H]3C=C[C@@H]2C32CC2)no1` (racemic) [Example 255, (5R*)—N^5-(5-Methyl-isoxazol-3-yl-methyl)-(6R*)—N^6-(4-pyrrolidin-1-yl-butyl)-(4S*,7R*)-[4,7-ethenylene-spiro[2.4]heptane]-5,6-dicarboxamide]: the values for the EC50 at human ALX receptor and on human FPRL2 were 40 nM and 489 nM, respectively.

In the case of `Cc1csc(NC(=O)[C@H]2[C@H](C(=O)NCCCCN3CCCC3)[C@H]3C=C[C@@H]2C32CC2)n1` (racemic) [Example 256, (5R*)—N^5-(4-Methyl-thiazol-2-yl)-(6R*)—N^6-(4-pyrrolidin-1-yl-butyl)-(4S*,7R*)-[4,7-ethenylene-spiro[2.4]heptane]-5,6-dicarboxamide], the EC50 on human ALX receptor stood at 6720 nM; at human FPRL2, 348 nM.

With `O=C(NCCCCN1CCCC1)[C@H]1[C@H](C(=O)Nc2nnc(C(F)(F)F)s2)[C@@H]2C=C[C@H]1C21CC1` (racemic) [Example 257, (5R*)—N^5-(5-Trifluoromethyl-1,3,4-thiadiazol-2-yl)-(6R*)—N^6-(4-pyrrolidin-1-yl-butyl)-(4S*,7R*)-[4,7-ethenylene-spiro[2.4]heptane]-5,6-dicarboxamide], the EC50 on human ALX receptor is 6010 nM; at human FPRL2 it was 167 nM.

For `O=C(NCCF)[C@H]1[C@H](C(=O)Nc2ncc(Br)s2)[C@@H]2C=C[C@H]1C21CC1` (racemic) [Example 259, (5R*)—N^5-(5-Bromo-thiazol-2-yl)-(6R*)—N^6-(2-fluoro-ethyl)-(4S*,7R*)-[4,7-ethenylene-spiro[2.4]heptane]-5,6-dicarboxamide], the EC50 on human ALX receptor was 354 nM; on human FPRL2 it was above 25000 nM.

As for `O=C(NCCN1CCNC1=O)[C@H]1[C@H](C(=O)Nc2ncc(Br)s2)[C@@H]2C=C[C@H]1C21CC1` (racemic) [Example 260, (5R*)—N^5-(5-Bromo-thiazol-2-yl)-(6R*)—N^6-((2-imidazolidin-2-on)-1-yl-ethyl)-(4S*,7R*)-[4,7-ethenylene-spiro[2.4]heptane]-5,6-dicarboxamide], the EC50 on human ALX receptor was 9.1 nM; at human FPRL2, 8730 nM.

Take `CC(=O)c1csc(CNC(=O)[C@H]2[C@H](C(=O)NCCC(N)=O)[C@H]3C=C[C@@H]2C32CC2)n1` (racemic) [Example 261, (5R*)—N^5-(4-Acetyl-thiazol-2-yl-methyl)-(6R*)—N^6-(3-amino-3-oxopropyl)-(4S*,7R*)-[4,7-ethenylene-spiro[2.4]heptane]-5,6-dicarboxamide]: the EC50 was 297 nM at human ALX receptor and above 25000 nM on human FPRL2.

In the case of `CCN(CC)CCCCNC(=O)[C@H]1[C@H](C(=O)NCc2nc(C(C)=O)cs2)[C@@H]2C=C[C@H]1C21CC1` (racemic) [Example 262, (5R*)—N^5-(4-Acetyl-thiazol-2-yl-methyl)-(6R*)—N^6-(4-diethylamino-butyl)-(4S*,7R*)-[4,7-ethenylene-spiro[2.4]heptane]-5,6-dicarboxamide], the values for the EC50 at human ALX receptor and on human FPRL2 were 97 nM and 106 nM, respectively.

As to `CCOCCCNC(=O)[C@H]1[C@H](C(=O)NCc2ccc(Br)cc2)[C@@H]2C=C[C@H]1C21CC1` (racemic) [Example 263, (5R*)—N^5-(4-Bromophenyl-methyl)-(6R*)—N^6-(3-ethoxy-propyl)-(4S*,7R*)-[4,7-ethenylene-spiro[2.4]heptane]-5,6-dicarboxamide], the EC50 at human ALX receptor was 899 nM; on human FPRL2, 4460 nM.

Turning to `CC(=O)c1csc(CNC(=O)[C@H]2[C@H](C(=O)NCCCN3CCCC3)[C@H]3C=C[C@@H]2C32CC2)n1` (racemic) [Example 264, (5R*)—N^5-(4-Acetyl-thiazol-2-yl-methyl)-(6R*)—N^6-(3-pyrrolidino-propyl)-(4S*,7R*)-[4,7-ethenylene-spiro[2.4]heptane]-5,6-dicarboxamide], the concentration for a half-maximal effect (EC50) on human ALX receptor came out at 140 nM; on human FPRL2, 835 nM.

Take `CN1CCN(CCCNC(=O)[C@H]2[C@H](C(=O)Nc3ncc(Br)s3)[C@@H]3C=C[C@H]2C32CC2)CC1` (racemic) [Example 265, (5R*)—N^5-(5-Bromothiazol-2-yl)-(6R*)—N^6-(3-(4-methylpiperazin-1-yl)-propyl)-(4S*,7R*)-[4,7-ethenylene-spiro[2.4]heptane]-5,6-dicarboxamide]: the EC50 on human ALX receptor was determined as 49 nM; at human FPRL2 it was 462 nM.

With `CC(=O)c1csc(CNC(=O)[C@H]2[C@H](C(=O)NCCN(C)C)[C@H]3C=C[C@@H]2C32CC2)n1` (racemic) [Example 266, (5R*)—N^5-(4-Acetyl-thiazol-2-yl-methyl)-(6R*)—N^6-(2-dimethylamino-ethyl)-(4S*,7R*)-[4,7-ethenylene-spiro[2.4]heptane]-5,6-dicarboxamide], the EC50 at human ALX receptor stood at 65 nM; on human FPRL2, 1210 nM.

As for `CC(=O)c1csc(CNC(=O)[C@H]2[C@H](C(=O)NCCCN(C)C)[C@H]3C=C[C@@H]2C32CC2)n1` (racemic) [Example 267, (5R*)—N^5-(4-Acetyl-thiazol-2-yl-methyl)-(6R*)—N^6-(3-dimethylamino-propyl)-(4S*,7R*)-[4,7-ethenylene-spiro[2.4]heptane]-5,6-dicarboxamide], the EC50 on human ALX receptor is 288 nM; at human FPRL2, 15300 nM.

Regarding `CC(=O)c1csc(CNC(=O)[C@H]2[C@H](C(=O)NCCCN3CCN(C)CC3)[C@H]3C=C[C@@H]2C32CC2)n1` (racemic) [Example 268, (5R*)—N^5-(4-Acetyl-thiazol-2-yl-methyl)-(6R*)—N^6-(3-(4-methylpiperazin-1-yl)-propyl)-(4S*,7R*)-[4,7-ethenylene-spiro[2.4]heptane]-5,6-dicarboxamide], the figures for the EC50 at human ALX receptor and on human FPRL2 were 477 nM and 22900 nM, respectively.

As to `CC(=O)c1csc(CNC(=O)[C@H]2[C@H](C(=O)NCCN3CCNC3=O)[C@H]3C=C[C@@H]2C32CC2)n1` (racemic) [Example 269, (5R*)—N^5-(4-Acetyl-thiazol-2-yl-methyl)-(6R*)—N^6-((2-imidazolidin-2-on)-1-yl-ethyl)-(4S*,7R*)-[4,7-ethenylene-spiro[2.4]heptane]-5,6-dicarboxamide], the EC50 is 82 nM at human ALX receptor and 3550 nM on human FPRL2.

Consider `CCN(CC)CCCCNC(=O)[C@H]1[C@H](C(=O)Nc2ncc(Br)s2)[C@@H]2C=C[C@H]1C21CC1` (racemic) [Example 270, (5R*)—N^5-(5-Bromothiazol-2-yl)-(6R*)—N^6-(4-diethylamino-butyl)-(4S*,7R*)-[4,7-ethenylene-spiro[2.4]heptane]-5,6-dicarboxamide], for which the figures for the EC50 at human ALX receptor and at human FPRL2 were 54 nM and 396 nM, respectively.

With `O=C(NCCF)[C@H]1[C@H](C(=O)NCc2ccc(Br)cc2)[C@@H]2C=C[C@H]1C21CC1` (racemic) [Example 271, (5R*)—N^5-(4-Bromophenyl-methyl)-(6R*)—N^6-(2-fluoroethyl)-(4S*,7R*)-[4,7-ethenylene-spiro[2.4]heptane]-5,6-dicarboxamide], the EC50 is 673 nM on human ALX receptor and above 25000 nM at human FPRL2.

The values are drawn from patent US8563714B2, “Bridged spiro [2.4] heptane derivatives as ALX receptor and/or FPRL2 agonists” (Actelion Pharmaceuticals Ltd., priority 2009, dated 2013).
